Experimental data from the supplement of paper PMC10307832.

Tests used:
Assay in all cases: relative viability (nuclei count vs DMSO), 5 days (fraction); higher = more cells survive
[1] = compound: O=S(=O)(c1ccccc1)N(CC(F)(F)F)c1ccc(C(O)(C(F)(F)F)C(F)(F)F)cc1 + CC(=O)c1c(C)c2cnc(Nc3ccc(N4CCNCC4)cn3)nc2n(C2CCCC2)c1=O [Palbociclib] (partner 0.5 µM)
Summary of the method: (§1)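 Relative viability divides the nuclei count in treated wells by that in vehicle wells. Lung cancer cell lines were seeded in 1536-well plates, dosed by pin tool the next day, and fixed and stained after 5 days in one step with final 0.05% Triton X-100, 1% formaldehyde and 1 ug/ml Hoechst. Dosing was a single drug or a fixed anchor-drug dose plus five library-drug doses (not always all listed) in √10 steps, and values are medians of duplicate plates imaged at 4×.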

RO-3306 + Luminespib = compound: C1=CC2=C(C=CC(=C2)C=C3C(=O)NC(=NCC4=CC=CS4)S3)N=C1 [RO-3306] + CCNC(=O)c1noc(-c2cc(C(C)C)c(O)cc2O)c1-c1ccc(CN2CCOCC2)cc1 [Luminespib] (partner 0.01 µM)
Summary of the method: as §1

RO-3306 + OSI-027 = compound: C1=CC2=C(C=CC(=C2)C=C3C(=O)NC(=NCC4=CC=CS4)S3)N=C1 [RO-3306] + COc1cccc2cc(-c3nc([C@H]4CC[C@H](C(=O)O)CC4)n4ncnc(N)c34)[nH]c12 [OSI-027] (partner 0.5 µM)
Summary of the method: as §1

RO-3306 + Lapatinib = compound: C1=CC2=C(C=CC(=C2)C=C3C(=O)NC(=NCC4=CC=CS4)S3)N=C1 [RO-3306] + CS(=O)(=O)CCNCc1ccc(-c2ccc3ncnc(Nc4ccc(OCc5cccc(F)c5)c(Cl)c4)c3c2)o1 [Lapatinib] (partner 2 µM)
Summary of the method: as §1

| Cell Line | relative viability ([1]; first compound 0.8 µM) | relative viability ([1]; first compound 2.53 µM) | relative viability ([1]; first compound 8 µM) | relative viability (RO-3306 + Luminespib; first compound 0.01 µM) | relative viability (RO-3306 + Luminespib; first compound 0.03162 µM) | relative viability (RO-3306 + Luminespib; first compound 0.1 µM) | relative viability (RO-3306 + Luminespib; first compound 0.3162 µM) | relative viability (RO-3306 + Luminespib; first compound 1 µM) | relative viability (RO-3306 + OSI-027; first compound 0.01 µM) | relative viability (RO-3306 + OSI-027; first compound 0.03162 µM) | relative viability (RO-3306 + OSI-027; first compound 0.1 µM) | relative viability (RO-3306 + OSI-027; first compound 0.3162 µM) | relative viability (RO-3306 + OSI-027; first compound 1 µM) | relative viability (RO-3306 + Lapatinib; first compound 0.01 µM) | relative viability (RO-3306 + Lapatinib; first compound 0.03162 µM) | relative viability (RO-3306 + Lapatinib; first compound 0.1 µM) | relative viability (RO-3306 + Lapatinib; first compound 0.3162 µM) | relative viability (RO-3306 + Lapatinib; first compound 1 µM) |
| --- | --- | --- | --- | --- | --- | --- | --- | --- | --- | --- | --- | --- | --- | --- | --- | --- | --- | --- |
| HOP-62 | 0.408 | 0.3 | 0.355 | 1.02 | 0.926 | 0.976 | 0.925 | 0.894 | 0.827 | 0.593 | 0.727 | 0.89 | 0.8 | 1.47 | 0.771 | 0.93 | 1.04 | 1.06 |
| NCI-H650 | 0.322 | 0.329 | 0.27 | 0.716 | 0.755 | 0.813 | 0.798 | 0.789 | 0.473 | 0.471 | 0.492 | 0.483 | 0.501 | 0.867 | 0.728 | 0.774 | 1.06 | 1.01 |
| NCI-H1993 | 0.57 | 0.511 | 0.594 | 0.792 | 0.697 | 0.913 | 0.799 | 0.746 | 0.6 | 0.581 | 0.507 | 0.614 | 0.543 | – | 0.747 | 0.74 | 0.795 | 0.839 |
| NCI-H2023 | 0.335 | 0.328 | 0.27 | 0.681 | 0.723 | 0.643 | 0.534 | 0.396 | 0.429 | 0.373 | 0.36 | 0.419 | 0.283 | 0.769 | 0.645 | 0.822 | 1.04 | 0.683 |
| NCI-H647 | 0.329 | 0.305 | 0.408 | 0.234 | 0.121 | 0.122 | 0.174 | 0.322 | 0.644 | 0.608 | 0.636 | 0.84 | 0.673 | 1.45 | 0.881 | 0.974 | 1.32 | 0.783 |
| EPLC-272H | 0.357 | 0.286 | 0.261 | 0.239 | 0.114 | 0.142 | 0.367 | 0.111 | 0.259 | 0.252 | 0.29 | 0.223 | 0.283 | 0.789 | 0.595 | 0.803 | 0.768 | 0.849 |
| NCI-H1395 | 0.642 | 0.627 | 0.603 | 0.915 | 0.878 | 0.622 | 0.653 | 0.519 | 0.598 | 0.674 | 0.502 | 0.618 | 0.612 | 0.817 | 0.925 | 0.824 | 1.08 | 0.826 |
| NCI-H3122 | 0.143 | 0.148 | 0.202 | 0.113 | 0.108 | 0.0505 | 0.101 | 0.122 | 1.11 | 0.849 | 1.03 | 1.03 | 1.01 | 1.1 | 1 | 1.02 | 0.997 | 0.827 |
| SK-MES-1 | 0.351 | 0.354 | 0.277 | 0.708 | 0.973 | 0.705 | 0.605 | 0.968 | 0.657 | 0.558 | 0.693 | 0.794 | 0.612 | 0.449 | 0.472 | 0.444 | 0.505 | 0.471 |
| NCI-H661 | 0.426 | 0.386 | 0.396 | 0.869 | 1.02 | 0.934 | 0.953 | 0.936 | 0.853 | 0.597 | 0.695 | 0.72 | 0.701 | 0.412 | 0.469 | 0.532 | 0.536 | 0.605 |
| NCI-H322M | 0.503 | 0.497 | 0.51 | 0.801 | 0.708 | 0.907 | 0.943 | 0.835 | 0.535 | 0.527 | 0.532 | 0.571 | 0.503 | 0.576 | 0.595 | 0.575 | 0.586 | 0.561 |
| NCI-H727 | 0.621 | 0.623 | 0.618 | 0.244 | – | 0.453 | 0.906 | 0.3 | 0.567 | 0.548 | 0.557 | 0.608 | 0.674 | 0.869 | 0.647 | 0.789 | 0.845 | 0.972 |
| LU99A | 0.407 | 0.343 | 0.374 | 0.203 | 0.245 | 0.233 | 0.25 | 0.275 | 0.296 | 0.284 | 0.297 | 0.317 | 0.274 | 1.2 | 0.971 | 0.915 | 0.789 | 0.914 |
| SK-LU-1 | 0.358 | 0.423 | 0.376 | 0.184 | 0.194 | 0.179 | 0.202 | 0.166 | 0.283 | 0.285 | 0.325 | 0.314 | 0.339 | 1.07 | 0.812 | 0.842 | 0.902 | 0.797 |
| 201T | 0.365 | 0.354 | 0.371 | 1.02 | 1.05 | 1.02 | 1.01 | 1.05 | 0.586 | 0.729 | 0.709 | 0.779 | 0.672 | 1.04 | 0.954 | 1.01 | 1.04 | 0.823 |
| COR-L23 | 0.332 | 0.269 | 0.285 | 0.648 | 0.591 | 0.778 | 0.868 | 0.562 | 0.741 | 0.688 | 0.783 | 0.632 | 0.514 | 0.708 | – | 0.942 | 1.06 | 1.18 |
| LCLC-97TM1 | – | 0.206 | 0.236 | 0.765 | 0.711 | 0.61 | 0.752 | 0.93 | 0.53 | 0.391 | 0.476 | 0.549 | 0.454 | – | 0.794 | 0.949 | 1.22 | 1.09 |
| PC-14 | 0.345 | 0.254 | 0.198 | 0.251 | 0.147 | 0.161 | 0.139 | 0.15 | 0.895 | 0.609 | 0.76 | 1.37 | 0.86 | 0.326 | 0.395 | 0.312 | 0.317 | 0.295 |
| NCI-H1651 | 0.555 | 0.503 | 0.5 | 1.21 | 0.873 | 0.857 | 1.03 | 0.802 | 0.796 | 0.564 | 0.633 | 0.794 | 0.609 | 0.839 | 0.648 | 0.77 | 0.972 | 0.644 |
| HCC-15 | 0.703 | 0.567 | 0.642 | 0.488 | 0.42 | 0.355 | 0.315 | 0.418 | 0.664 | 0.562 | 0.649 | 0.808 | 0.608 | 0.919 | 0.779 | 0.84 | 0.893 | 0.592 |
| NCI-H1755 | 0.471 | 0.46 | 0.464 | 0.435 | 0.3 | 0.275 | 0.269 | 0.484 | 0.777 | 0.736 | 0.652 | 0.702 | 0.635 | 1.2 | 1.04 | 1.03 | 1.04 | 1.01 |
